Source: patent publication US20030077653A1, “Method for the identification of active site protease inactivators” (The University of Georgia Research Foundation, Inc., priority 2000, published 2003)
Where two headings read alike, the source gives them in different places. Starred links: 1 amine or outer side, 2 acyl side, 3 side chain; linkers in the order of their positions; H or OH if unused. Residues, ends and D or L forms follow the SMILES beside them. *: point of attachment. AFC = O=c1cc(C(F)(F)F)c2ccc(N*)cc2o1; Suc = O=C(CCC(=O)[*:2])[*:1]; Cbz = O=C(OCc1ccccc1)*

What was measured:
Taenia crassiceps cysts [1] = assay: Scanning electron microscopy of surfaces of cysts removed from treated mice; format: in vivo
Description: FIG. 9. Scanning electron microscopy of the surface of cysts removed from untreated mice versus cysts removed from treated mice. Magnifications are identical for both slides in each panel. panel A (4000×). […] No immune cells were seen on cysts removed from untreated mice. Panel B (25,000×). […] Microtriches in untreated cysts can be seen to be visibly longer. Visible anchors were also noted for the untreated cysts group, whereas these anchors were not observed in microtriches from treated cysts.
For example, we hypothesized that the cysteine protease was a key parasitic molecule to allow the cyst to evade the host immune response, by cleaving host antibodies. By inhibiting the Taenia cysteine protease with Z-LLY-FMK, we hypothesized that host immunoglobulin could now bind the parasites, and initiate immunological responses (e.g., complement via IgG2a) which would cause damage to the cyst wall. […] We identified macrophages, neutrophils, fibroblasts, and collagenous deposits on the cyst surfaces from treated mice, in comparison to their absence on cysts from untreated mice. General surface atrophy was also apparent. […] Breaks in the integrity of the cyst surface were also noted for the cysts removed from treated mice. […] Cysts removed from untreated mice were characterized by no immune cells, intact and longer microtriches, and homogeneity of the cyst surface.

Taenia crassiceps cysts [2] = assay: Short-term prophylactic protection of BALB/c mice from cysticercosis infection; format: in vivo; settings: pre-injected two days, 10 T. crassiceps cysts/mouse, dosed daily four weeks, intraperitoneal; vs untreated controls
Method: FIG. 8. […] Each treated mouse was pre-injected intraperitoneally with inhibitor for two days. During treatment phase, each treated mouse received 1.48×10^−2 μg/μl of N2 daily for three weeks and every other day during the last week. Injections were carried out in 150 μl of dimethyl sulfoxide for each mouse. Both treated groups and positive controls were challenged intraperitoneally with 10 Taenia crassiceps cysts in 200 μl 0.15M PBS at the time of initial infection. After one month of infection, both groups were euthanized and cysts removed by washing with sterile 0.15M PBS. A minimum of two attached cysts were scored as multilobed (ML). […] (B) Graphically represents the effect of protease inhibitor treatment of BALB/c mice challenged with Taenia crassiceps cysts over a long-term period. Mice were divided into treated and untreated groups (5 mice/group).Each mouse in the treated group was pre-injected intraperitoneally with inhibitor for two days. […] Cysts were then counted by visual inspection. […]
Based upon the premise that the cyst wall cysteine protease may serve a critical finction to the life cycle of the Taenia cyst, we tested our most efficacious inhibitors, LLL-FMK and LLY-FMK (K-Pyr was used as a control), for their abilities to protect mice from cysticercosis infection. […] After one month, the mice were euthanized and the cysts counted. […]

[3] = tested on: T solium purified cysteine protease; assay: Human IgG degradation assay (western blot; Step IV); format: biochemical, Taenia solium; settings: 18 hrs, 37° C.
Method: FIG.6. IgG degradation of heavy chain by purified cysteine protease of Taenia solium. human IgG was incubated for 18 hours with T. solium purified cysteine protease (CP). Incubated tubes were subsequently fractionated by SDS-PAGE under reducing conditions, blotted onto PVDF membrane, and visualized using biotinylated anti-IgG (heavy chain/light chain), biotin-peroxidase conjugated-strepavidin complex and enhanced chemiluminescence. Bands represent heavy chains.
To conduct this assessment, a western blot was performed. IgG digestion was detected by incubating 20 μl of T solium purified enzyme or T solium extract with 1 μg of human IgG (Sigma, St. Louis) in a fmal volume of 100 μl of assay buffer. Exogenous thiol activation was assessed by incubating the assay in the presence or absence of cysteine. The catalytic class of the IgG protease was determined by pre-incubating the following proteinase inhibitors at their active concentrations, with the enzyme: E 64 (10^−6 M, cysteine proteinases), phenylmethylsulfonyl fluoride (PMSF) (10^−3 M, serine proteinases), pepstatin A (10^−6 M, aspartic proteinases), and 1,10 phenanthroline (10^−3 M, metalloproteinases), and the vehicle, Mu-Leu-Tyr-AFC (10^−3 M). After addition of IgG, the assay was incubated overnight (37° C., 18 hrs). […]

[4] = tested on: purified Taenia solium cysteine protease; assay: Screen of AFC-linked synthetic substrates for cleavage (Step II); format: biochemical; settings: pH 4.9, 18 h, 37° C
Method: In this step, the most efficacious substrate for detection of the cysteine protease (high Kcat substrate) was determined in vitro along with those substrates which were not well cleaved (low kcat substrates). From this point forth, the following conditions refer to all assays: “assay buffer” refers to 0.4 M Citrate, pH 4.9 (the pH optima of the protease). Incubation time was 18 hours at 37° C. These conditions were determined by our preliminary data to be best for kinetic evaluation of the protease. […] The experiments were conducted in […] Borosilicate mini-culture tubes (Fisher Scientific), and a fluorometer (Turner) was employed for detection of AFC cleavage.
Approximately 1 ug (or a proteolytically detectable amount) of the purified target cysteine protease was incubated individually, with 1 μg of each of the available substrates in 500 μL of assay buffer. During this setup, the substrate was pre-incubated in the assay buffer for a short period of time (20 minutes) in order to reach an equilibrated status before the addition of the protease. Cleavage assessments were based upon the property of the protease to cleave synthetic peptide substrates linked at the C-terminus to 7-Amino-4-Trifluoromethyl Coumarin (AFC) as previously described. AFC linked tripeptides, dipeptides, and monopeptides, (with a variety of permutations at P3-P1) were available from Enzyme Systems Products (Livermore, CA), and were used as the source of the subset. Following incubation of enzyme preparations overnight (18 h, 37 ° C.) with peptide in assay buffer (Citrate, pH 4.9, supplemented with 0.01 M cysteine), free AFC concentrations were measured fluorometrically (excitation […]). The proteolytic cleavage released the AFC group, which was measurable as a free molecule by a standard fluorometer and converted into molar quantities, based upon a previously established standard curve. The simplicity of AFC detection by the fluorometer was a key factor which quickened and simplified the procedures.
In the assay, 1 ug of the purified Taenia cysteine protease was added to a saturating amount of Z-Phe-Arg-AFC (4×10^−5 M) in assay buffer. The experiment was conducted in triplicate and repeated at least 5 times until we were certain that variability in AFC cleavage was not statistically significant.
Vmax was calculated for the cleavage of substrates by the purified target protease and Vmax was calculated for substrates cleaved by the crude mix protease using conventional kinetic modeling calculations already described in the art.

Trypsin = assay: Differential cleavage (selectivity) test; format: biochemical, human; settings: vehicle 4×10^−5 M; pH 8.0, Z-R-AFC
Method: (§1) In order to perform the assay, the vehicle (for Step VI) or inhibitor (for Step IX) were incubated with the appropriate substrate in the correct assay buffer and allowed to equilibrate. Subsequently, the protease was added, and the assay was allowed to incubate for an appropriate time. The concentrations used in this experiment were as follows: Vehicle was set up at 4×10^−5 M in final assay buffer; Inhibitor was set up at 3×10^−10 M in the final assay buffer. Accordingly, the dosages employed should be the minimal amount of vehicle or inhibitor necessary to induce inhibition. […] Substrates were set up based upon the preferred substrate for cleavage of the particular enzyme.
(§2) Positive controls were set up similarly as described for test controls, except that solvent was added in substitution for the inhibitor or vehicle (in a volume equal to the volume of inhibitor or vehicle addition). All of the inhibitors and vehicles could be dissolved in dimethylsulfoxide (DMSO), and therefore, this was the solvent of choice. Negative controls were set up by adding the inhibitor or vehicle and the preferred substrates in a tube without the protease. All potential non-proteolytic liberation of AFC was therefore controlled for in this tube (a feature which also insured stability of the AFC substrates, since these substrates will freely liberate AFC when unstable).
(§3) All controls were set up in triplicate, and experiments were repeated a minimum of five times.
(§4) Percent inhibition was calculated as: [formula]
(§5) In this preliminary test, we employed the following human-derived enzymes (with indicated mechanistic class): Cathepsin B (cysteine), Cathepsin L (cysteine), Cathepsin H (cysteine), Cathepsin D (aspartic) Trypsin (serine), the purified Taenia solium cysteine protease, and the Taenia solium crude mix. Cathepsin B was prepared in an assay buffer of 10 mM L-cysteine in 0.4 M Citrate buffer, pH 6. 1, using Z-ARR-AFC as the cleavage substrate. Cathepsin L was prepared in an assay buffer of 10 mM L-cysteine in 0.4 M Citrate buffer, pH 5.5, using Z-FR-AFC as the cleavage substrate. Cathepsin H was prepared in an assay buffer of 10 mM L-cysteine in 0.15 M PBS buffer, pH 6.8, using L- R-AFC as the cleavage substrate. Cathepsin D was prepared in an assay buffer of 0.15 M PBS, pH 7.1, using Z-RGFFP-AFC as the cleavage substrate. Trypsin was prepared in an assay buffer of 0.15 M PBS, pH 8.0, supplemented with 100 mM CaCl2 and with Z-R-AFC as the cleavage substrate. Enzyme was incubated so that it was at least 50 times less than the concentration of substrate in order to insure saturating conditions.

Cathepsin B = Cathepsin B (Homo sapiens, UniProt P07858); assay: Differential cleavage (selectivity) test; format: biochemical; settings: vehicle 4×10^−5 M; pH 6.1, Z-ARR-AFC
Method: as §1, §2, §3, §4, §5

Cathepsin L = Cathepsin L (Homo sapiens, UniProt P07711); assay: Differential cleavage (selectivity) test; format: biochemical; settings: vehicle 4×10^−5 M; pH 5.5, Z-FR-AFC
Method: as §1, §2, §3, §4, §5

Cathepsin D = Cathepsin D (Homo sapiens, UniProt P07339); assay: Differential cleavage (selectivity) test; format: biochemical; settings: vehicle 4×10^−5 M; pH 7.1, Z-RGFFP-AFC
Method: as §1, §2, §3, §4, §5

Cathepsin H = molecular target: T1, Cathepsin H (Homo sapiens, UniProt P09668); assay: Differential cleavage (selectivity) test; format: biochemical; settings: vehicle 4×10^−5 M; pH 6.8, L-R-AFC
T1 sequence (P09668 98-335): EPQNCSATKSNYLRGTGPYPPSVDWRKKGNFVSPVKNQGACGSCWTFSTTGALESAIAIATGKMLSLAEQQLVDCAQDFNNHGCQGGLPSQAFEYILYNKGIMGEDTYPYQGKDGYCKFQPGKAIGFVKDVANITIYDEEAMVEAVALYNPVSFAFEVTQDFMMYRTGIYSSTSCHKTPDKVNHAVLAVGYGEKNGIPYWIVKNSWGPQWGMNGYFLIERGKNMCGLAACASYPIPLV
Method: as §1, §2, §3, §4, §5

Chain of Cathepsin L (P07711 114-333): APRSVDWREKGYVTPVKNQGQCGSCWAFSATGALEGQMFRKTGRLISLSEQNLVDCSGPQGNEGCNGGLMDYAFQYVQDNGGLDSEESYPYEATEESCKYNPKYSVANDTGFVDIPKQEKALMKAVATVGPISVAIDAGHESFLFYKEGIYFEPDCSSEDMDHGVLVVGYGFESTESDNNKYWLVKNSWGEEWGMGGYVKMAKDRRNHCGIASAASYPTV
Chain of Cathepsin D (P07339 65-412): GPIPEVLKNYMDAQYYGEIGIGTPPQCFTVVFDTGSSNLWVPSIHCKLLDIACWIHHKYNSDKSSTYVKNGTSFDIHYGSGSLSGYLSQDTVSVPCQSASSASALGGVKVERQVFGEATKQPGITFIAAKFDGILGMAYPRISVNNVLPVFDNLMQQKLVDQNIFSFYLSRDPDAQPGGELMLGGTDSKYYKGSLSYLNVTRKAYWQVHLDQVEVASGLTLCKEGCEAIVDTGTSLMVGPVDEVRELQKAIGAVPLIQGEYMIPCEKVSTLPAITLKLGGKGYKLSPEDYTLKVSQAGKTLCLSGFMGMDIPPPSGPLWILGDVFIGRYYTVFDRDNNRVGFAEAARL

Molecule	inhibition of cleavage of human IgG [3]	cleavage as substrate (Vmax) [4]	Percent inhibition of Trypsin (serine) (Trypsin) [%]	Percent inhibition of Cathepsin B (cysteine) (Cathepsin B) [%]	Percent inhibition of Cathepsin L (cysteine) (Cathepsin L) [%]	Percent inhibition of Cathepsin D (aspartic) (Cathepsin D) [%]	Percent inhibition of Cathepsin H (cysteine) (Cathepsin H) [%]	also measured
Leu-Phe-Ketoamide-Pyridyl [K-Pyr]								Immune cells observed by SEM on cyst surfaces (Taenia crassiceps cysts [1]): None; Immune cells observed by SEM on cyst surfaces (Taenia crassiceps cysts [1]; listed as K- Pyr): neither adherent immune cells nor damaged tegunent; % Prophylactic protection of BALB/c mice (Taenia crassiceps cysts [2]): 40%
CC(C)CC(NC(=O)CCC(=O)O)C(=O)NC(Cc1ccc(O)cc1)C(=O)Nc1ccc2c(C(F)(F)F)cc(=O)oc2c1 (stereo not drawn) [Suc-Leu-Tyr-AFC] (Suc-Leu-Tyr-{AFC}; configuration not given here)	ability to inhibit							
CC(C)C[C@H](NC(=O)[C@H]1O[C@@H]1C(=O)O)C(=O)NCCCCN=C(N)N [E64]	Inhibition was noted							
CC(C)C[C@H](NC(=O)OCc1ccccc1)C(=O)N[C@@H](CC(C)C)C(=O)N[C@@H](CC(C)C)C(=O)Nc1ccc2c(C(F)(F)F)cc(=O)oc2c1 [Z-LLL-AFC, Z-Leu- Leu-Leu-AFC] (Cbz-Leu-Leu-Leu-{AFC})		noncleavable	0	0	0	0	0	
CC(C)C[C@H](NC(=O)OCc1ccccc1)C(=O)N[C@@H](CC(C)C)C(=O)N[C@@H](Cc1ccc(O)cc1)C(=O)Nc1ccc2c(C(F)(F)F)cc(=O)oc2c1 [Z-LLY-AFC, Z-Leu-Leu-Tyr-AFC] (Cbz-Leu-Leu-Tyr-{AFC})		noncleavable	0	0	0	0	0	
